{"source": "PubChem BioAssay (NCI)", "experiment_in_all_cases": "NCI anticancer screen, dose series, 48 h", "key": {"[1]": {"test_system": "786-0 renal"}, "[2]": {"test_system": "A498 renal"}, "[3]": {"test_system": "A549 NSCLC"}, "[4]": {"test_system": "ACHN renal"}, "[5]": {"test_system": "CAKI-1 renal"}, "[6]": {"test_system": "CCRF-CEM leukemia"}, "[7]": {"test_system": "COLO 205 colon"}, "[8]": {"test_system": "DLD-1 colon"}, "[9]": {"test_system": "DMS 114 small cell lung"}, "[10]": {"test_system": "DMS 273 small cell lung"}, "[11]": {"test_system": "EKVX NSCLC"}, "[12]": {"test_system": "HCC-2998 colon"}, "[13]": {"test_system": "HCT-116 colon"}, "[14]": {"test_system": "HCT-15 colon"}, "[15]": {"test_system": "HL-60(TB) leukemia"}, "[16]": {"test_system": "HOP-62 NSCLC"}, "[17]": {"test_system": "HOP-92 NSCLC"}, "[18]": {"test_system": "HT29 colon"}, "[19]": {"test_system": "IGROV1 ovarian"}, "[20]": {"test_system": "K-562 leukemia"}, "[21]": {"test_system": "KM12 colon"}, "[22]": {"test_system": "KM20L2 colon"}, "[23]": {"test_system": "LOX IMVI melanoma"}, "[24]": {"test_system": "LXFL 529 NSCLC"}, "[25]": {"test_system": "M14 melanoma"}, "[26]": {"test_system": "M19-MEL melanoma"}, "[27]": {"test_system": "MALME-3M melanoma"}, "[28]": {"test_system": "MOLT-4 leukemia"}, "[29]": {"test_system": "NCI-H226 lung"}}, "note": "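Assay format: 96-well plates, 48-hour exposure. At the GI50, growth is halved. TGI marks complete inhibition of growth.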"}
{"smiles": "CCC[CH2][Sn]1([CH2]CCC)[O]CC(CN2CCCCC2)[O]1", "note": "(stereo not drawn)", "values": [{"measurement": "GI50", "setting": "[1]", "result": 291, "unit": "nM"}, {"measurement": "TGI", "setting": "[1]", "result": 1010, "unit": "nM"}, {"measurement": "GI50", "setting": "[2]", "result": 276, "unit": "nM"}, {"measurement": "TGI", "setting": "[2]", "result": 785, "unit": "nM"}, {"measurement": "GI50", "setting": "[3]", "result": 1990, "unit": "nM"}, {"measurement": "TGI", "setting": "[3]", "result": 3810, "unit": "nM"}, {"measurement": "GI50", "setting": "[4]", "result": 269, "unit": "nM"}, {"measurement": "TGI", "setting": "[4]", "result": 808, "unit": "nM"}, {"measurement": "GI50", "setting": "[5]", "result": 51.2, "unit": "nM"}, {"measurement": "TGI", "setting": "[5]", "result": 333, "unit": "nM"}, {"measurement": "GI50", "setting": "[6]", "result": 117, "unit": "nM"}, {"measurement": "TGI", "setting": "[6]", "result": 600, "unit": "nM"}, {"measurement": "GI50", "setting": "[7]", "result": 273, "unit": "nM"}, {"measurement": "TGI", "setting": "[7]", "result": 883, "unit": "nM"}, {"measurement": "GI50", "setting": "[8]", "result": 394, "unit": "nM"}, {"measurement": "TGI", "setting": "[8]", "result": 1850, "unit": "nM"}, {"measurement": "GI50", "setting": "[9]", "result": 156, "unit": "nM"}, {"measurement": "TGI", "setting": "[9]", "result": 654, "unit": "nM"}, {"measurement": "GI50", "setting": "[10]", "result": 271, "unit": "nM"}, {"measurement": "TGI", "setting": "[10]", "result": 1250, "unit": "nM"}, {"measurement": "GI50", "setting": "[11]", "result": 284, "unit": "nM"}, {"measurement": "TGI", "setting": "[11]", "result": 1920, "unit": "nM"}, {"measurement": "GI50", "setting": "[12]", "result": 486, "unit": "nM"}, {"measurement": "TGI", "setting": "[12]", "result": 1870, "unit": "nM"}, {"measurement": "GI50", "setting": "[13]", "result": 892, "unit": "nM"}, {"measurement": "TGI", "setting": "[13]", "result": 2130, "unit": "nM"}, {"measurement": "GI50", "setting": "[14]", "result": 460, "unit": "nM"}, {"measurement": "TGI", "setting": "[14]", "result": 1670, "unit": "nM"}, {"measurement": "GI50", "setting": "[15]", "result": 68.3, "unit": "nM"}, {"measurement": "TGI", "setting": "[15]", "result": 337, "unit": "nM"}, {"measurement": "GI50", "setting": "[16]", "result": 1610, "unit": "nM"}, {"measurement": "TGI", "setting": "[16]", "result": 3050, "unit": "nM"}, {"measurement": "GI50", "setting": "[17]", "result": 193, "unit": "nM"}, {"measurement": "TGI", "setting": "[17]", "result": 885, "unit": "nM"}, {"measurement": "GI50", "setting": "[18]", "result": 569, "unit": "nM"}, {"measurement": "TGI", "setting": "[18]", "result": 1880, "unit": "nM"}, {"measurement": "GI50", "setting": "[19]", "result": 1120, "unit": "nM"}, {"measurement": "TGI", "setting": "[19]", "result": 2410, "unit": "nM"}, {"measurement": "GI50", "setting": "[20]", "result": 109, "unit": "nM"}, {"measurement": "TGI", "setting": "[20]", "result": 744, "unit": "nM"}, {"measurement": "GI50", "setting": "[21]", "result": 634, "unit": "nM"}, {"measurement": "TGI", "setting": "[21]", "result": 2100, "unit": "nM"}, {"measurement": "GI50", "setting": "[22]", "result": 852, "unit": "nM"}, {"measurement": "TGI", "setting": "[22]", "result": 2210, "unit": "nM"}, {"measurement": "GI50", "setting": "[23]", "result": 179, "unit": "nM"}, {"measurement": "TGI", "setting": "[23]", "result": 485, "unit": "nM"}, {"measurement": "GI50", "setting": "[24]", "result": 76.2, "unit": "nM"}, {"measurement": "TGI", "setting": "[24]", "result": 263, "unit": "nM"}, {"measurement": "GI50", "setting": "[25]", "result": 336, "unit": "nM"}, {"measurement": "TGI", "setting": "[25]", "result": 1330, "unit": "nM"}, {"measurement": "GI50", "setting": "[26]", "result": 477, "unit": "nM"}, {"measurement": "TGI", "setting": "[26]", "result": 1730, "unit": "nM"}, {"measurement": "GI50", "setting": "[27]", "result": 62.8, "unit": "nM"}, {"measurement": "TGI", "setting": "[27]", "result": 616, "unit": "nM"}, {"measurement": "GI50", "setting": "[28]", "result": 158, "unit": "nM"}, {"measurement": "TGI", "setting": "[28]", "result": 646, "unit": "nM"}, {"measurement": "GI50", "setting": "[29]", "result": 1630, "unit": "nM"}, {"measurement": "TGI", "setting": "[29]", "result": 3120, "unit": "nM"}]}
